Measured values published in US20250134952A1, “METHODS FOR IMPROVING THE EFFICACY OF HDAC INHIBITOR THERAPY AND PREDICTING THE RESPONSE TO TREATMENT WITH HDAC INHIBITOR” (INSTITUT NATIONAL DE LA SANTÉ ET DE LA RECHERCHE MÉDICALE, priority 2021, published 2025).

Columns and labels:
[1] = tested on: GAL4 UAS promoter in GAL4UAS responsive luciferase reporter Hela stable cell line; test: ChIP-qPCR of H3 acetylation or Tau occupancy on the GAL4UAS promoter; format: cell-based
Excerpt: (A) Chromatin immunoprecipitations-qPCR analysis of H3 acetylation and Tau occupancy on the GAPDH promoter in MCF7shctrl cells in the indicated conditions. MCF7shctrl cells were subjected to cross-linking by 1% formaldehyde. Chromatin fragments were then immunoprecipitated using antibodies (Ab) against acetylated H3 (ac-H3) or Tau and analyzed by quantitative PCR for the presence of the GAPDH promoter. (B) Functional organization of the p21 promoter. (C) ChIP-qPCR analysis of H3 acetylation in MCF7shctrl or shTau cells or (D) Tau occupancy in MCF7shctrl cells on the p21 promoter. (E) ChIP-qPCR analysis of H3 acetylation or Tau occupancy on the stably transfected GAL4UAS responsive luciferase reporter transfected, or not, with Tau4R, then 24 h later treated with 100 nM TSA for 24 h. Cells were then subjected to cross-linking by 1% formaldehyde. Chromatin fragments were then immunoprecipitated using antibodies (Ab) against acetylated H3 or Tau and analyzed by quantitative PCR for the presence of the GAL4 UAS promoter. Quantification of enrichment is represented as fold-enrichment relative to IgG. Data are mean±SD **P<0.01***P<0.001
The ChIP protocol used was previously described (Lefebvre et al., 2006). […]

p21 (CDKN1a) = p21 (CDKN1a) expression by real-time PCR; format: cell-based, human; conditions: 100 nM TSA, 24 h
Procedure: (A) Representative confocal sections of MCF7shctrl and shTau cells untreated or treated with 100 nM TSA for 24 h. […] (B) Quantification of HP1α clusters per nuclei visualized as described previously and realized on three independent experiments. (C) GADD45a and (D) p21 (CDKN1a) expression in MCF7shctrl and shTau cells untreated or treated with 100 nM TSA for 24 h were analyzed by real-time PCR and normalized to RPLO. Results are expressed, relative to the basal activity set to 1, as the mean±SD of three independent assays. (E) Tau tethering prevents adjacent reporter gene activity induced by TSA. GAL4UAS responsive luciferase reporter Hela stable cell line was transfected with GAL4DBD (GAL4) or GAL4DBD-Tau4R and then, 24 h later, treated with TSA (600 nM) for 24 h. The luciferase activity was determined as described in the Materials and Methods. (F) Ectopic Tau4R expression prevents adjacent reporter gene activity induced by TSA. […] The luciferase activity was determined as described in the Materials and Methods. […]
Total RNA was prepared using RNeasyMinikit (Qiagen). Reverse transcription (RT) was performed using random hexamers as recommended by the manufacturer (Applied Biosystems). cDNAs were analyzed by PCR amplification using the TaqMan PCR master mix (Applied Biosystems) and a mix of RPLO primers and probes. […]

breast cancer cell lines = test: Preliminary experiments: lowest dose of TSA inducing cellular responses; format: cell-based, human
Procedure: To dissect the role of Tau in controlling chromatin we sought to perturb chromatin structure by inhibiting histone deacetylation with the pan-histone deacetylase-inhibitor trichostatin A (TSA). In our preliminary experiments we found the lowest dose of TSA inducing cellular responses was 100 nM and we used this concentration in all the following experiments. First, we evaluated cell death, apoptosis and cell cycle progression by flow cytometric analyses in the two cell lines (as above we just illustrate our results with MCF7 cells in the main paper). We tested the effect of TSA in the presence or absence of short hairpin RNAs (Tau and Control). After 48 hours there was a strong increase in the number of dead cells from less 2% to >50% in the Tau-knockdown cells and a lesser increase to 38% in sh-ctrl cells (FIG. 1). In agreement, apoptosis was measured at 48% and 30% respectively (FIG. 1C).

## CC(/C=C/C(=O)NO)=C\[C@@H](C)C(=O)c1ccc(N(C)C)cc1 [TSA, 2,4-Heptadienamide, 7-[4-(dimethylamino)phenyl]-N-hydroxy-4,6-dimethyl-7-oxo-, (2E,4E,6R)-]
[1]; 100 nM TSA, Tau4R transfected HeLa cells
  TSA-induced increase of ac-H3 in the presence of transfected Tau4R: abrogated
[1]; TSA-treated condition (100 nM), Tau4R transfected
  Tau4R enrichment: 16 fold
p21 (CDKN1a); MCF7shctrl cells, relative to basal
  p21 induction (RT-qPCR): 2.5 fold
p21 (CDKN1a); cells with reduced Tau expression (MCF7shTau) vs MCF7shctrl
  p21 upregulation by TSA: exacerbated
Breast cancer cell lines
  lowest dose of TSA inducing cellular responses: 100 nM
